# Test results: ChEMBL document CHEMBL2413072, “Synthesis and in vitro anticancer studies of novel C-2 arylidene congeners of lantadenes” (2013)
# Key:
# Assay type in all cases: functional
# [1] = test system: COLO 205; assay: Growth inhibition of human COLO205 cells by sulforhodamine B assay
# [2] = test system: A549; assay: Growth inhibition of human A549/ATCC cells by sulforhodamine B assay
# [3] = test system: RPMI-8226; assay: Growth inhibition of human RPMI8226 cells by sulforhodamine B assay
# [4] = test system: IGROV-1; assay: Growth inhibition of human IGROV1 cells assessed as cell growth at 10^-8 M by sulforhodamine B assay; conditions: read-out: Activity
# [5] = test system: SF-295; assay: Growth inhibition of human SF295 cells assessed as cell growth at 10^-8 M by sulforhodamine B assay; conditions: read-out: Activity
# [6] = test system: SF-268; assay: Growth inhibition of human SF268 cells assessed as cell growth at 10^-8 M by sulforhodamine B assay; conditions: read-out: Activity
# [7] = test system: NCI-H522; assay: Growth inhibition of human NCI-H522 cells assessed as cell growth at 10^-8 M by sulforhodamine B assay; conditions: read-out: Activity
# [8] = test system: HOP-62; assay: Growth inhibition of human HOP62 cells assessed as cell growth at 10^-8 M by sulforhodamine B assay; conditions: read-out: Activity
# [9] = Growth inhibition of human Hs 578T cells by sulforhodamine B assay
# [10] = test system: DU-145; assay: Growth inhibition of human DU145 cells by sulforhodamine B assay
# [11] = test system: TK-10; assay: Growth inhibition of human TK10 cells by sulforhodamine B assay
# [12] = test system: SK-OV-3; assay: Growth inhibition of human SKOV3 cells by sulforhodamine B assay
# [13] = test system: OVCAR-5; assay: Growth inhibition of human OVCAR5 cells by sulforhodamine B assay
# [14] = test system: TK-10; assay: Growth inhibition of human TK10 cells assessed as cell growth at 10^-4 M by sulforhodamine B assay; conditions: read-out: Activity
# [15] = test system: 786-0; assay: Growth inhibition of human 786-0 cells assessed as cell growth at 10^-4 M by sulforhodamine B assay; conditions: read-out: Activity
# [16] = Growth inhibition of human NCI-ADR-RES cells assessed as cell growth at 10^-4 M by sulforhodamine B assay; conditions: read-out: Activity
# [17] = test system: OVCAR-4; assay: Growth inhibition of human OVCAR4 cells assessed as cell growth at 10^-4 M by sulforhodamine B assay; conditions: read-out: Activity
# [18] = test system: U-251; assay: Growth inhibition of human U251 cells assessed as cell growth at 10^-4 M by sulforhodamine B assay; conditions: read-out: Activity
# [19] = Growth inhibition of human HCC2998 cells assessed as cell growth at 10^-4 M by sulforhodamine B assay; conditions: HCC 2998, read-out: Activity
# [20] = test system: NCI-H322M; assay: Growth inhibition of human NCI-H322M cells assessed as cell growth at 10^-4 M by sulforhodamine B assay; conditions: read-out: Activity
# [21] = test system: HOP-92; assay: Growth inhibition of human HOP92 cells assessed as cell growth at 10^-4 M by sulforhodamine B assay; conditions: read-out: Activity
# [22] = test system: BT-549; assay: Growth inhibition of human BT549 cells assessed as cell growth at 10^-6 M by sulforhodamine B assay; conditions: read-out: Activity
# [23] = test system: LOX IMVI; assay: Growth inhibition of human LOXIMVI cells assessed as cell growth at 10^-6 M by sulforhodamine B assay; conditions: read-out: Activity
# [24] = test system: SW-620; assay: Growth inhibition of human SW620 cells assessed as cell growth at 10^-6 M by sulforhodamine B assay; conditions: read-out: Activity
# [25] = test system: K562; assay: Growth inhibition of human K562 cells assessed as cell growth at 10^-6 M by sulforhodamine B assay; conditions: read-out: Activity
# [26] = test system: MDA-MB-468; assay: Growth inhibition of human MDA-MB-468 cells assessed as cell growth at 10^-7 M by sulforhodamine B assay; conditions: read-out: Activity
# [27] = test system: DU-145; assay: Growth inhibition of human DU145 cells assessed as cell growth at 10^-7 M by sulforhodamine B assay; conditions: read-out: Activity
# [28] = test system: TK-10; assay: Growth inhibition of human TK10 cells assessed as cell growth at 10^-7 M by sulforhodamine B assay; conditions: read-out: Activity
# [29] = test system: RXF 393; assay: Growth inhibition of human RXF393 cells assessed as cell growth at 10^-7 M by sulforhodamine B assay; conditions: read-out: Activity
# [30] = test system: A498; assay: Growth inhibition of human A498 cells assessed as cell growth at 10^-7 M by sulforhodamine B assay; conditions: read-out: Activity
# [31] = test system: SK-OV-3; assay: Growth inhibition of human SKOV3 cells assessed as cell growth at 10^-7 M by sulforhodamine B assay; conditions: read-out: Activity
# [32] = test system: IGROV-1; assay: Growth inhibition of human IGROV1 cells assessed as cell growth at 10^-7 M by sulforhodamine B assay; conditions: read-out: Activity
# [33] = test system: UACC-257; assay: Growth inhibition of human UACC257 cells assessed as cell growth at 10^-7 M by sulforhodamine B assay; conditions: read-out: Activity
# [34] = test system: LOX IMVI; assay: Growth inhibition of human LOXIMVI cells assessed as cell growth at 10^-7 M by sulforhodamine B assay; conditions: read-out: Activity
# [35] = test system: SW-620; assay: Growth inhibition of human SW620 cells assessed as cell growth at 10^-7 M by sulforhodamine B assay; conditions: read-out: Activity
# [36] = test system: HCT-116; assay: Growth inhibition of human HCT116 cells assessed as cell growth at 10^-7 M by sulforhodamine B assay; conditions: read-out: Activity
# [37] = test system: NCI-H322M; assay: Growth inhibition of human NCI-H322M cells assessed as cell growth at 10^-7 M by sulforhodamine B assay; conditions: read-out: Activity
# [38] = test system: K562; assay: Growth inhibition of human K562 cells assessed as cell growth at 10^-7 M by sulforhodamine B assay; conditions: read-out: Activity
# [39] = test system: CCRF-CEM; assay: Growth inhibition of human CCRF-CEM cells assessed as cell growth at 10^-7 M by sulforhodamine B assay; conditions: read-out: Activity
# [40] = test system: CAKI-1; assay: Growth inhibition of human CAKI-1 cells assessed as cell growth at 10^-8 M by sulforhodamine B assay; conditions: read-out: Activity
# [41] = read-out: LC50 (the source's name)
# [42] = read-out: pLC50 (the source's name) (converted)
compound,measurement,setting,value
CC(C)=CC(=O)O[C@@H]1CC(C)(C)C[C@H]2C3=CC[C@@H]4[C@@]5(C)CC[C@H](O)C(C)(C)[C@@H]5CC[C@@]4(C)[C@]3(C)CC[C@@]12C(=O)O [Reduced Lantadene B],GI50,[1]; read-out: GI50,3.66 µM
same,LC50,[1]; read-out: LC50,93.6 µM
same,TGI,[1]; read-out: TGI,14.3 µM
same,GI50,[1]; read-out: pGI50 (converted),3.63 µM
same,LC50,[1]; read-out: pLC50 (converted),93.3 µM
same,TGI,[1]; read-out: pTGI (converted),14.5 µM
same,GI50,[2]; read-out: GI50,0.438 µM
same,CC50,[2]; [41],82.4 µM
same,TGI,[2]; read-out: TGI,14.9 µM
same,GI50,[2]; read-out: pGI50 (converted),0.437 µM
same,CC50,[2]; [42],83.2 µM
same,TGI,[2]; read-out: pTGI (converted),14.8 µM
same,GI50,[3]; read-out: GI50,2.43 µM
same,CC50,[3]; [41],> 100 µM
same,TGI,[3]; read-out: TGI,38.3 µM
same,GI50,[3]; read-out: pGI50 (converted),2.45 µM
same,CC50,[3]; [42],> 100 µM
same,TGI,[3]; read-out: pTGI (converted),38 µM
same,growth at 0.01 µM,[4],104%
same,growth at 0.01 µM,[5],95%
same,growth at 0.01 µM,[6],93%
same,growth at 0.01 µM,[7],92%
same,growth at 0.01 µM,[8],85%
same,GI50,[9]; read-out: GI50,3.04 µM
same,CC50,[9]; [41],> 100 µM
same,TGI,[9]; read-out: TGI,12.3 µM
same,GI50,[9]; read-out: pGI50 (converted),3.02 µM
same,CC50,[9]; [42],> 100 µM
same,TGI,[9]; read-out: pTGI (converted),12.3 µM
same,GI50,[10]; read-out: GI50,7.7 µM
same,CC50,[10]; [41],61.6 µM
same,TGI,[10]; read-out: TGI,23.5 µM
same,GI50,[10]; read-out: pGI50 (converted),7.76 µM
same,CC50,[10]; [42],61.7 µM
same,TGI,[10]; read-out: pTGI (converted),23.4 µM
same,GI50,[11]; read-out: GI50,10.7 µM
same,CC50,[11]; [41],71.6 µM
same,TGI,[11]; read-out: TGI,27.7 µM
same,GI50,[11]; read-out: pGI50 (converted),10.7 µM
same,CC50,[11]; [42],70.8 µM
same,TGI,[11]; read-out: pTGI (converted),27.5 µM
same,GI50,[12]; read-out: GI50,12.8 µM
same,CC50,[12]; [41],80.2 µM
same,TGI,[12]; read-out: TGI,32 µM
same,GI50,[12]; read-out: pGI50 (converted),12.9 µM
same,CC50,[12]; [42],79.4 µM
same,TGI,[12]; read-out: pTGI (converted),32.4 µM
same,GI50,[13]; read-out: GI50,15.9 µM
same,CC50,[13]; [41],98.9 µM
same,TGI,[13]; read-out: TGI,39.7 µM
same,GI50,[13]; read-out: pGI50 (converted),15.8 µM
same,CC50,[13]; [42],100 µM
same,TGI,[13]; read-out: pTGI (converted),39.8 µM
same,growth at 100 µM,[14],-68%
same,growth at 100 µM,[15],-73%
same,growth at 100 µM,[16],-30%
same,growth at 100 µM,[17],-39%
same,growth at 100 µM,[18],-61%
same,growth at 100 µM,[19],-66%
same,growth at 100 µM,[20],-70%
same,growth at 100 µM,[21],-81%
same,growth at 1 µM,[22],93%
same,growth at 1 µM,[23],88%
same,growth at 1 µM,[24],87%
same,growth at 1 µM,[25],69%
same,growth at 0.1 µM,[26],98%
same,growth at 0.1 µM,[27],100%
same,growth at 0.1 µM,[28],93%
same,growth at 0.1 µM,[29],95%
same,growth at 0.1 µM,[30],85%
same,growth at 0.1 µM,[31],103%
same,growth at 0.1 µM,[32],106%
same,growth at 0.1 µM,[33],93%
same,growth at 0.1 µM,[34],93%
same,growth at 0.1 µM,[35],95%
same,growth at 0.1 µM,[36],94%
same,growth at 0.1 µM,[37],89%
same,growth at 0.1 µM,[38],91%
same,growth at 0.1 µM,[39],102%
same,growth at 0.01 µM,[40],97%
